According to ChEMBL document CHEMBL1149262, “Monoamine transporter binding, locomotor activity, and drug discrimination properties of 3-(4-substituted-phenyl)tropane-2-carboxylic acid methyl ester isomers” (J Med Chem, 2004):
pIC50, pKi: −log10 of the molar value. Active and inactive are the calls of the source. No cut-off for these calls is given here.

How the values were obtained:
Mus musculus [1] = experiment: Locomotor activity in CD1 mouse assessed as stimulation at 3 mg/kg, ip after 1 hr relative to control; format: functional; conditions: route intraperitoneal
Mus musculus [2] = experiment: Locomotor activity in ip dosed CD1 mouse in peak hour; format: functional
Mus musculus [3] = experiment: Locomotor activity in CD1 mouse assessed as stimulation at 10 mg/kg, ip after 2 hrs relative to control; format: functional; conditions: route intraperitoneal
[4] = target: Sodium-dependent dopamine transporter (Homo sapiens, UniProt Q01959); experiment: Displacement of [3H]WIN-35428 from DAT
Mus musculus [5] = experiment: Activity in CD1 mouse assessed as straub tail at 100 mg/kg, ip after 4 hrs; format: functional, organism-based; design: dose 100 mg/kg
Mus musculus [6] = experiment: Activity in CD1 mouse assessed as death at 100 mg/kg, ip after 4 hrs; format: functional, organism-based; design: dose 100 mg/kg
Mus musculus [7] = experiment: Locomotor activity in CD1 mouse assessed as stimulation at 1 mg/kg, ip after 2 hrs relative to control; format: functional; conditions: route intraperitoneal
Mus musculus [8] = experiment: Activity in CD1 mouse assessed as stereotypy at 100 mg/kg, ip after 4 hrs; format: functional, organism-based; design: dose 100 mg/kg
Mus musculus [9] = experiment: Locomotor activity in CD1 mouse assessed as stimulation at 30 mg/kg, ip after 3 hrs relative to control; format: functional; conditions: route intraperitoneal
Mus musculus [10] = experiment: Locomotor activity in CD1 mouse assessed as stimulation at 30 mg/kg, ip after 2 hrs relative to control; format: functional; conditions: route intraperitoneal
Rattus norvegicus [11] = experiment: Drug discrimination effect in CD Albino rat assessed as percent of rat choosing cocaine lever at 3 mg/kg, ip; format: functional; conditions: route intraperitoneal
Mus musculus [12] = experiment: Activity in CD1 mouse assessed as convulsions at 100 mg/kg, ip after 4 hrs; format: functional, organism-based; design: dose 100 mg/kg
Mus musculus [13] = experiment: Activity in CD1 mouse assessed as tremor at 100 mg/kg, ip after 4 hrs; format: functional, organism-based; design: dose 100 mg/kg
Mus musculus [14] = experiment: Locomotor activity in CD1 mouse assessed as stimulation at 3 mg/kg, ip after 2 hrs relative to control; format: functional; conditions: route intraperitoneal
Rattus norvegicus [15] = experiment: Drug discrimination effect in CD Albino rat assessed as percent of rat choosing cocaine lever at 10 mg/kg, ip; format: functional; conditions: route intraperitoneal
Mus musculus [16] = experiment: Locomotor activity in CD1 mouse assessed as stimulation at 1 mg/kg, ip after 4 hrs relative to control; format: functional; conditions: route intraperitoneal
Mus musculus [17] = experiment: Locomotor activity in CD1 mouse assessed as stimulation at 1 mg/kg, ip after 3 hrs relative to control; format: functional; conditions: route intraperitoneal
Mus musculus [18] = experiment: Locomotor activity in CD1 mouse assessed as stimulation at 3 mg/kg, ip after 4 hrs relative to control; format: functional; conditions: route intraperitoneal
Mus musculus [19] = experiment: Locomotor activity in CD1 mouse assessed as stimulation at 3 mg/kg, ip after 3 hrs relative to control; format: functional; conditions: route intraperitoneal
Mus musculus [20] = experiment: Locomotor activity in CD1 mouse assessed as stimulation at 10 mg/kg, ip after 3 hrs relative to control; format: functional; conditions: route intraperitoneal
Mus musculus [21] = experiment: Locomotor activity in CD1 mouse assessed as stimulation at 30 mg/kg, ip after 1 hr relative to control; format: functional; conditions: route intraperitoneal
Mus musculus [22] = experiment: Activity in CD1 mouse assessed as ataxia at 100 mg/kg, ip after 4 hrs; format: functional, organism-based; design: dose 100 mg/kg
Mus musculus [23] = experiment: Activity in CD1 mouse assessed as stimulation at 10 mg/kg, ip after 4 hrs; format: functional, organism-based; design: dose 10 mg/kg
Rattus norvegicus [24] = experiment: Drug discrimination effect in CD Albino rat assessed as percent of rat choosing cocaine lever at 5.6 mg/kg, ip; format: functional; conditions: route intraperitoneal
Mus musculus [25] = experiment: Locomotor activity in CD1 mouse assessed as stimulation at 30 mg/kg, ip after 4 hrs relative to control; format: functional; conditions: route intraperitoneal
Mus musculus [26] = experiment: Locomotor activity in CD1 mouse assessed as stimulation at 10 mg/kg, ip after 4 hrs relative to control; format: functional; conditions: route intraperitoneal
Mus musculus [27] = experiment: Locomotor activity in CD1 mouse assessed as stimulation at 10 mg/kg, ip after 1 hr relative to control; format: functional; conditions: route intraperitoneal
Mus musculus [28] = experiment: Locomotor activity in CD1 mouse assessed as stimulation at 1 mg/kg, ip after 1 hr relative to control; format: functional; conditions: route intraperitoneal
Mus musculus [29] = experiment: Activity in CD1 mouse assessed as circling at 100 mg/kg, ip after 4 hrs; format: functional, organism-based; design: dose 100 mg/kg
Rattus norvegicus [30] = experiment: Cocaine discrimination in ip dosed CD Albino rat; format: functional
Mus musculus [31] = experiment: Activity in CD1 mouse assessed as stereotypy at 10 mg/kg, ip after 4 hrs; format: functional, organism-based; design: dose 10 mg/kg
Mus musculus [32] = experiment: Activity in CD1 mouse assessed as ptosis at 10 mg/kg, ip after 4 hrs; format: functional, organism-based; design: dose 10 mg/kg
[33] = target: Sodium-dependent serotonin transporter (Homo sapiens, UniProt P31645)
Description: Displacement of [3H]paroxetine from 5HTT

Mus musculus [34] = experiment: Activity in CD1 mouse assessed as hypoactivity at 10 mg/kg, ip after 4 hrs; format: functional, organism-based; design: dose 10 mg/kg
Mus musculus [35] = experiment: Activity in CD1 mouse assessed as hypoactivity at 100 mg/kg, ip after 4 hrs; format: functional, organism-based; design: dose 100 mg/kg
Mus musculus [36] = experiment: Activity in CD1 mouse assessed as ptosis at 100 mg/kg, ip after 4 hrs; format: functional, organism-based; design: dose 100 mg/kg
Rattus norvegicus [37] = experiment: Drug discrimination effect in CD Albino rat assessed as percent of rat choosing cocaine lever at 1 mg/kg, ip; format: functional; conditions: route intraperitoneal
Mus musculus [38] = experiment: Activity in CD1 mouse assessed as flattened body posture at 100 mg/kg, ip after 4 hrs; format: functional, organism-based; design: dose 100 mg/kg

Sodium-dependent serotonin transporter, sequence (P31645 whole entry): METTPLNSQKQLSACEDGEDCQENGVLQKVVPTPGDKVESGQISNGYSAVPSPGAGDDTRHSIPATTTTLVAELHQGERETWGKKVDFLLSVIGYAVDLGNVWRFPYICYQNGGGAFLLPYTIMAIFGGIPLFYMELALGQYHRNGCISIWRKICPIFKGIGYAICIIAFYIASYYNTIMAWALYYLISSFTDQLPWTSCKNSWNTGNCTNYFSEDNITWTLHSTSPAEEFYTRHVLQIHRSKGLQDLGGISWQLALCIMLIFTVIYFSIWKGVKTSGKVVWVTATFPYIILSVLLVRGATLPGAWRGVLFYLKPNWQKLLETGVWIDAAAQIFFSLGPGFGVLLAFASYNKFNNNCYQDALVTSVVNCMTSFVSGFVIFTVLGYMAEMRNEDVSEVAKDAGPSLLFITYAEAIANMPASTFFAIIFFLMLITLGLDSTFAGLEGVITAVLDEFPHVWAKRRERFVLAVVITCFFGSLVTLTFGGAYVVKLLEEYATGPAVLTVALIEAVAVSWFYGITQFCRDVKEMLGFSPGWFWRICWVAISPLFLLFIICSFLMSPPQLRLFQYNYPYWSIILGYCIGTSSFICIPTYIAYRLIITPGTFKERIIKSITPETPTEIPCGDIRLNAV
Sodium-dependent dopamine transporter, sequence (Q01959 whole entry): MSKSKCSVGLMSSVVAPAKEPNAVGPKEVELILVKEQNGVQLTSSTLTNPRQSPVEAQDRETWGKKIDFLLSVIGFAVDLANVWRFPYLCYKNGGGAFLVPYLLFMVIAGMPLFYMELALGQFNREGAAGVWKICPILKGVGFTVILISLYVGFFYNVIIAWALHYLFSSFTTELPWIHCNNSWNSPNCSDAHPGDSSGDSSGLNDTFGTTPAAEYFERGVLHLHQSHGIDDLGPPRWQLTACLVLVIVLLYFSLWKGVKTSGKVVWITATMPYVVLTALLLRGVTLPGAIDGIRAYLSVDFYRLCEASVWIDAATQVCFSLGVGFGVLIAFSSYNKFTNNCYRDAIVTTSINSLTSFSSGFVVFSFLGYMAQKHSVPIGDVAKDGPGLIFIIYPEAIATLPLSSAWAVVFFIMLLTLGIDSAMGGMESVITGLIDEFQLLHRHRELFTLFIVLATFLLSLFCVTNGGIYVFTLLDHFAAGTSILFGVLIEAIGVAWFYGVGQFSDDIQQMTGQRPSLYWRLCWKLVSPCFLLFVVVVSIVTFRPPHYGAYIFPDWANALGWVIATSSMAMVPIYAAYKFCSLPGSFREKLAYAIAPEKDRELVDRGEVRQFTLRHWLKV

Question: `COC(=O)[C@H]1C2CCC(C[C@@H]1c1ccc(Cl)cc1)N2C` (stereo partly drawn) was tested. Which Activity (Mus musculus [1]) did it give?
Answer: Its Activity is 68%.

Question: What about the ED50 (Mus musculus [2]) of the same compound?
Answer: Its ED50 is 4.3 mg/kg.

Question: And the Activity (Mus musculus [3])?
Answer: The Activity was 1003%.

Question: What about the pIC50 [4] of the same compound?
Answer: The pIC50 was 7.60.

Question: And the Activity (Mus musculus [5])?
Answer: The Activity was “Active”.

Question: What about the Activity (Mus musculus [6]) of the same compound?
Answer: The Activity was “Active”.

Question: And the Activity (Mus musculus [7])?
Answer: Its Activity is 50%.

Question: What about the Activity (Mus musculus [8]) of the same compound?
Answer: Its Activity is “Active”.

Question: And the Activity (Mus musculus [9])?
Answer: Its Activity is 911%.

Question: What about the Activity (Mus musculus [10]) of the same compound?
Answer: Its Activity is 493%.

Question: And the Activity (Rattus norvegicus [11])?
Answer: Its Activity is 13%.

Question: And the Activity (Mus musculus [12])?
Answer: The Activity was “Active”.

Question: What about the Activity (Mus musculus [13]) of the same compound?
Answer: Its Activity is “Active”.

Question: What about the Activity (Mus musculus [14]) of the same compound?
Answer: Its Activity is 188%.

Question: What about the Activity (Rattus norvegicus [15]) of the same compound?
Answer: The Activity was 67%.

Question: And the Activity (Mus musculus [16])?
Answer: The Activity was 62%.

Question: What about the Activity (Mus musculus [17]) of the same compound?
Answer: The Activity was 83%.

Question: And the Activity (Mus musculus [18])?
Answer: Its Activity is 15%.

Question: What about the Activity (Mus musculus [19]) of the same compound?
Answer: The Activity was 92%.

Question: And the Activity (Mus musculus [20])?
Answer: Its Activity is 1275%.

Question: And the Activity (Mus musculus [21])?
Answer: Its Activity is 154%.

Question: What about the Activity (Mus musculus [22]) of the same compound?
Answer: The Activity was “Active”.

Question: What about the Activity (Mus musculus [23]) of the same compound?
Answer: The Activity was “Active”.

Question: And the Activity (Rattus norvegicus [24])?
Answer: Its Activity is 88%.

Question: What about the Activity (Mus musculus [25]) of the same compound?
Answer: The Activity was 794%.

Question: What about the Activity (Mus musculus [26]) of the same compound?
Answer: Its Activity is 667%.

Question: And the Activity (Mus musculus [27])?
Answer: The Activity was 248%.

Question: And the Activity (Mus musculus [28])?
Answer: Its Activity is 15%.

Question: What about the Activity (Mus musculus [29]) of the same compound?
Answer: The Activity was “Active”.

Question: And the ED50 (Rattus norvegicus [30])?
Answer: Its ED50 is 4.07 mg/kg.

Question: For `COC(=O)[C@H]1C2CCC(C[C@@H]1c1ccc(Br)cc1)N2C` (stereo partly drawn), which Activity (Mus musculus [1]) is on record?
Answer: The Activity was 19%.

Question: What about the ED50 (Mus musculus [2]) of the same compound?
Answer: The ED50 was 10 mg/kg.

Question: And the Activity (Mus musculus [3])?
Answer: Its Activity is 268%.

Question: And the pIC50 [4]?
Answer: The pIC50 was 7.80.

Question: And the Activity (Mus musculus [5])?
Answer: Its Activity is “Active”.

Question: What about the Activity (Mus musculus [6]) of the same compound?
Answer: Its Activity is “Active”.

Question: And the Activity (Mus musculus [31])?
Answer: Its Activity is “Active”.

Question: And the Activity (Mus musculus [7])?
Answer: The Activity was 26%.

Question: What about the Activity (Mus musculus [8]) of the same compound?
Answer: Its Activity is “Active”.

Question: What about the Activity (Mus musculus [9]) of the same compound?
Answer: Its Activity is 901%.

Question: What about the Activity (Mus musculus [10]) of the same compound?
Answer: Its Activity is 640%.

Question: And the Activity (Mus musculus [32])?
Answer: Its Activity is “Active”.

Question: What about the Activity (Rattus norvegicus [11]) of the same compound?
Answer: Its Activity is 25%.

Question: What about the Activity (Mus musculus [12]) of the same compound?
Answer: Its Activity is “Active”.

Question: And the Activity (Mus musculus [14])?
Answer: The Activity was 123%.

Question: What about the Activity (Rattus norvegicus [15]) of the same compound?
Answer: The Activity was 86%.

Question: What about the Activity (Mus musculus [16]) of the same compound?
Answer: The Activity was -5%.

Question: What about the Activity (Mus musculus [17]) of the same compound?
Answer: Its Activity is 56%.

Question: And the Activity (Mus musculus [18])?
Answer: Its Activity is 29%.

Question: And the Activity (Mus musculus [19])?
Answer: The Activity was 100%.

Question: And the Activity (Mus musculus [20])?
Answer: The Activity was 267%.

Question: And the Activity (Mus musculus [21])?
Answer: The Activity was -33%.

Question: What about the pIC50 [33] of the same compound?
Answer: Its pIC50 is 6.24.

Question: What about the pKi [33] of the same compound?
Answer: Its pKi is 6.85.

Question: What about the Activity (Rattus norvegicus [24]) of the same compound?
Answer: Its Activity is 17%.

Question: What about the Activity (Mus musculus [25]) of the same compound?
Answer: The Activity was 373%.

Question: What about the Activity (Mus musculus [26]) of the same compound?
Answer: The Activity was 74%.

Question: And the Activity (Mus musculus [27])?
Answer: The Activity was 49%.

Question: And the Activity (Mus musculus [34])?
Answer: Its Activity is “Active”.

Question: And the Activity (Mus musculus [35])?
Answer: Its Activity is “Active”.

Question: What about the Activity (Mus musculus [36]) of the same compound?
Answer: The Activity was “Active”.

Question: What about the Activity (Mus musculus [28]) of the same compound?
Answer: Its Activity is 9%.

Question: And the Activity (Mus musculus [29])?
Answer: Its Activity is “Active”.

Question: And the ED50 (Rattus norvegicus [30])?
Answer: Its ED50 is 7.29 mg/kg.

Question: Which results are given for `COC(=O)[C@H]1[C@H]2CCC(C[C@H]1c1ccc(Cl)cc1)N2C`?
Answer: Activity (Mus musculus [1]): 16%; Activity (Mus musculus [3]): 169%; Activity (Mus musculus [6]): Active; Activity (Mus musculus [7]): 182%; Activity (Mus musculus [9]): 125%; Activity (Mus musculus [10]): -27%; Activity (Rattus norvegicus [11]): 0%; Activity (Mus musculus [12]): Active; Activity (Mus musculus [14]): 128%; Activity (Rattus norvegicus [15]): 13%; Activity (Mus musculus [16]): 45%; Activity (Mus musculus [17]): 154%; Activity (Mus musculus [18]): 69%; Activity (Mus musculus [19]): 107%; Activity (Mus musculus [20]): 114%; Activity (Mus musculus [21]): -46%; Activity (Rattus norvegicus [37]): 13%; Activity (Rattus norvegicus [24]): 13%; Activity (Mus musculus [25]): -27%; Activity (Mus musculus [26]): 41%; Activity (Mus musculus [27]): 51%; Activity (Mus musculus [35]): Active; Activity (Mus musculus [28]): 6%; Activity (Mus musculus [38]): Active
